Laboratory results taken from ChEMBL document CHEMBL6178014, “Discovery and Administration Optimization of Novel Selective CDK9 Inhibitor, 1-7a-B1, for Improved Pharmacokinetics and Antitumor Efficacy In Vivo” (J Med Chem, 2025).
Activity calls are given as the source filed them. The rule behind the calls is not given here.

Legend:
PANC-1 = experiment: Cytotoxicity against human PANC-1 cells assessed as cell viability incubated for 48 hrs by CCK8 assay; format: functional, cell-based
HCT-116 [1] = experiment: Induction of apoptosis in human HCT-116 cells assessed as increase in PARP cleavage incubated for 48 hrs by Western blot analysis; format: functional, cell-based; conditions: dose 100-400 nM
HCT-116 [2] = experiment: Inhibition of wild type p53/MDM2 protein-protein interaction in human HCT-116 cells at 200 nM incubated for 48 hrs by co-immunoprecipitation (Co-IP) analysis; format: cell-based
HCT-116 [3] = experiment: Antitumor activity against human HCT-116 cells xenografted in female BALB/c nu-nu mouse assessed as downregulation of c-Myc mRNA expression at 40 mg/kg, po incubated for 48 hrs by qRT-PCR analysis; format: functional, organism-based
CDK6/cyclin D3 = CDK6/cyclin D3 (Homo sapiens, UniProt Q00534); experiment: Inhibition of CDK6/cycD3 (unknown origin) by ADP-Glo assay; format: protein-complex assay
HCT-116 [4] = experiment: Antitumor activity against human HCT-116 cells xenografted in female BALB/c nu-nu mouse assessed as downregulation of Bcl-2 mRNA expression at 40 mg/kg, po incubated for 48 hrs by qRT-PCR analysis; format: functional, organism-based
HCT-116 [5] = experiment: Downregulation of Mcl-1 level in human HCT-116 cells at 200 to 400 nM incubated for 48 hrs by Western blot analysis; format: functional, cell-based; conditions: dose 200-400 nM
[6] = AUC (0 to infinity) in Sprague-Dawley rat at 2 mg/kg, iv measured after 24 hrs by LC-MS/MS analysis; format: ADME, organism-based; conditions: in vivo
HT-29 = experiment: Antiproliferative activity against human HT-29 cells assessed as inhibition of cell growth incubated for 48 hrs by CCK8 assay; format: functional
CDK4/Cyclin D3 = CDK4/Cyclin D3 (Homo sapiens, UniProt P11802); experiment: Inhibition of CDK4/cycD3 (unknown origin) by ADP-Glo assay; format: protein-complex assay
[7] = AUC (0 to t) in Sprague-Dawley rat at 30 mg/kg, po measured after 24 hrs by LC-MS/MS analysis; format: ADME, organism-based; conditions: in vivo
CYP3A4 = CYP3A4 (Homo sapiens, UniProt P08684); experiment: Inhibition of CYP3A4 in human liver microsome at 10 uM pre-incubated with compound for 10 mins in presence of NADPH-regenerating system by LC-MS/MS analysis relative to control; format: ADME; conditions: liver microsomes
[8] = biological target: Cyclin-dependent kinase 9 (Homo sapiens) (UniProt P50750); experiment: Inhibition of CDK9 in human HCT-116 cells assessed as reduction in phosphorylation of RNA polymerase II at Ser2 residue at 100 to 400 nM incubated for 48 hrs by Western blot analysis; format: cell-based; conditions: dose 100-400 nM
[9] = Toxicity in female BALB/c nu-nu mouse xenografted with human HCT-116 cells assessed as histopathological changes in lung at 20 mg/kg, po as submicron emulsion administered once daily for 3 weeks by H and E staining based analysis; format: organism-based; conditions: in vivo, 504 h
[10] = Toxicity in female BALB/c nu-nu mouse xenografted with human HCT-116 cells assessed as histopathological changes in spleen at 40 mg/kg, po administered once daily for 3 weeks by H and E staining based analysis; format: organism-based; conditions: in vivo, 504 h
[11] = Metabolic stability in human liver microsome assessed as half life at 100 uM pre-incubated with compound for 60 mins followed by NADPH addition and measured up to 60 mins by LC-MS/MS analysis; format: ADME; conditions: liver microsomes, time < 120 min
A549 = experiment: Cytotoxicity against human A549 cells assessed as cell viability incubated for 48 hrs by CCK8 assay; format: functional, cell-based
[12] = Metabolic stability in human liver assessed as intrinsic clearance at 100 uM pre-incubated with compound for 60 mins followed by NADPH addition and measured up to 60 mins by LC-MS/MS analysis; format: ADME, tissue-based; conditions: read-out: CLH
[13] = Half life in Sprague-Dawley rat at 2 mg/kg, iv measured after 24 hrs by LC-MS/MS analysis; format: ADME, organism-based; conditions: in vivo
NCM460 = experiment: Cytotoxicity against human NCM460 cells assessed as cell viability incubated for 48 hrs by CCK8 assay; format: toxicity, cell-based; conditions: ncm460, 48 h
HCT-116 [14] = experiment: Induction of apoptosis in human HCT-116 cells assessed as increase in total apoptotic cells incubated for 48 hrs by Annexin V-FITC/PI staining based flow cytometry analysis; format: functional, cell-based; conditions: dose 100-400 nM
[15] = Tmax in Sprague-Dawley rat at 30 mg/kg, po as submicron emulsion measured after 24 hrs by LC-MS/MS analysis; format: ADME, organism-based; conditions: in vivo
HCT-116 [16] = experiment: Antiproliferative activity against human HCT-116 cells assessed as reduction in colony formation incubated for 14 days by crystal violet staining based analysis; format: functional, cell-based; conditions: dose 50-400 nM, time 14.0 day
HCT-116 [17] = experiment: Antitumor activity against human HCT-116 cells xenografted in female BALB/c nu-nu mouse assessed as tumor growth inhibition at 40 mg/kg, po administered once daily for 3 weeks by vernier caliper analysis; format: functional, organism-based
[18] = Toxicity in female BALB/c nu-nu mouse xenografted with human HCT-116 cells assessed as histopathological changes in liver at 40 mg/kg, po administered once daily for 3 weeks by H and E staining based analysis; format: organism-based; conditions: in vivo, 504 h
HCT-116 [19] = experiment: Induction of apoptosis in human HCT-116 cells assessed as increase in apoptotic cells by measuring red fluorescence by TUNEL staining based fluorescence microscopic analysis; format: functional, cell-based; conditions: dose 50-400 nM
[20] = Toxicity in female BALB/c nu-nu mouse xenografted with human HCT-116 cells assessed as histopathological changes in kidney at 20 mg/kg, po as submicron emulsion administered once daily for 3 weeks by H and E staining based analysis; format: organism-based; conditions: in vivo, 504 h
[21] = Toxicity in female BALB/c nu-nu mouse xenografted with human HCT-116 cells assessed as body weight loss at 40 mg/kg, po administered once daily for 3 weeks; format: organism-based; conditions: in vivo, 504 h
[22] = Toxicity in female BALB/c nu-nu mouse xenografted with human HCT-116 cells assessed as histopathological changes in liver at 20 mg/kg, po as submicron emulsion administered once daily for 3 weeks by H and E staining based analysis; format: organism-based; conditions: in vivo, 504 h
[23] = Clearance in Sprague-Dawley rat at 2 mg/kg, iv measured after 24 hrs by LC-MS/MS analysis; format: ADME, organism-based; conditions: in vivo
[24] = Toxicity in female BALB/c nu-nu mouse xenografted with human HCT-116 cells assessed as histopathological changes in lung at 40 mg/kg, po administered once daily for 3 weeks by H and E staining based analysis; format: organism-based; conditions: in vivo, 504 h
HCT-116 [25] = experiment: Antitumor activity against human HCT-116 cells xenografted in female BALB/c nu-nu mouse assessed as downregulation of Mcl-1 mRNA expression at 40 mg/kg, po incubated for 48 hrs by qRT-PCR analysis; format: functional, organism-based
CDK2/Cyclin A2 = CDK2/Cyclin A2 (Homo sapiens, UniProt P24941); experiment: Inhibition of CDK2/cyclA2 (unknown origin) by ADP-Glo assay; format: protein-complex assay
[26] = Cmax in Sprague-Dawley rat at 30 mg/kg, po measured after 24 hrs by LC-MS/MS analysis; format: ADME, organism-based; conditions: in vivo
[27] = MRT (infinity) in Sprague-Dawley rat at 30 mg/kg, po measured after 24 hrs by LC-MS/MS analysis; format: ADME, organism-based; conditions: in vivo

Chain of CDK4/Cyclin D3 (P11802 whole entry): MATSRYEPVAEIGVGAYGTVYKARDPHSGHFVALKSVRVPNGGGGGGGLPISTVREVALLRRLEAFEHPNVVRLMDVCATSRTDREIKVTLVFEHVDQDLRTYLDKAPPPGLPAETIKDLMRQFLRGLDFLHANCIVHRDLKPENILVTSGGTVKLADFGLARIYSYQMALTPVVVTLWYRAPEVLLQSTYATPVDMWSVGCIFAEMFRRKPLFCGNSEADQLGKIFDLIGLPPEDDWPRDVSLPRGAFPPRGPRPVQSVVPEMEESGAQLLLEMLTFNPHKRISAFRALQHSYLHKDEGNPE
Chain of CDK4/Cyclin D3 (P30281 whole entry, further chain): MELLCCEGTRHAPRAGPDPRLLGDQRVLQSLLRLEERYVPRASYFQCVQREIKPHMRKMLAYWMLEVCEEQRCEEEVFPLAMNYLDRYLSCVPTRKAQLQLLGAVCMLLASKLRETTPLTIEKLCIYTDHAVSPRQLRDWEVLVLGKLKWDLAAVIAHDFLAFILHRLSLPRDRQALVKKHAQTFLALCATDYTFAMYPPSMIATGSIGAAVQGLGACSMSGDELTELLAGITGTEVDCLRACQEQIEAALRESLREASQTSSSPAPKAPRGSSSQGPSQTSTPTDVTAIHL
Chain of Cyclin-dependent kinase 9 (Homo sapiens) (P50750 whole entry): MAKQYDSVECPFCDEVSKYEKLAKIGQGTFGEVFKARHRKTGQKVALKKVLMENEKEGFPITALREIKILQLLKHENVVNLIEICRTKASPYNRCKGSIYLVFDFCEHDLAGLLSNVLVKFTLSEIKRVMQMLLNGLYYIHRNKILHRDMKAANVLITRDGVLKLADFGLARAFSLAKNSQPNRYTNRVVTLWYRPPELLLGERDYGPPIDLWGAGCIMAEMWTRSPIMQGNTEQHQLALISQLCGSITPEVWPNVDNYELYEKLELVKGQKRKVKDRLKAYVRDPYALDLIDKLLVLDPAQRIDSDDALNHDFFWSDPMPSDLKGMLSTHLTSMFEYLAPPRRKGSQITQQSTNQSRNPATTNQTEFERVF
Chain of CYP3A4 (P08684 whole entry): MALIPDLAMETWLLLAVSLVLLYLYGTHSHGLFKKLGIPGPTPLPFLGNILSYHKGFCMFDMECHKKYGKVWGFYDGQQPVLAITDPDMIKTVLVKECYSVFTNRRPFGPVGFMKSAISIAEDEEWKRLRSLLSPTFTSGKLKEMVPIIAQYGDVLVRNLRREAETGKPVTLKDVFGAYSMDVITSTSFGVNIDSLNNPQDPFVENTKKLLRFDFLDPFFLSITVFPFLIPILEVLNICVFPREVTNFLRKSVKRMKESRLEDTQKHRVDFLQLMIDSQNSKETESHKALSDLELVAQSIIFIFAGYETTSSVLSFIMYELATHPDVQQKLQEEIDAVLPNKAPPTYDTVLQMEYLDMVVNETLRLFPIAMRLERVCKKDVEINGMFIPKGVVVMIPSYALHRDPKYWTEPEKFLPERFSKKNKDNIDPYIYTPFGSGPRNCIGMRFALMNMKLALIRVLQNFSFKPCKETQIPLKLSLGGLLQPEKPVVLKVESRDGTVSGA
Chain of CDK6/cyclin D3 (P30281 whole entry): as the sequence (P30281 whole entry, further chain) above
Chain of CDK6/cyclin D3 (Q00534 whole entry): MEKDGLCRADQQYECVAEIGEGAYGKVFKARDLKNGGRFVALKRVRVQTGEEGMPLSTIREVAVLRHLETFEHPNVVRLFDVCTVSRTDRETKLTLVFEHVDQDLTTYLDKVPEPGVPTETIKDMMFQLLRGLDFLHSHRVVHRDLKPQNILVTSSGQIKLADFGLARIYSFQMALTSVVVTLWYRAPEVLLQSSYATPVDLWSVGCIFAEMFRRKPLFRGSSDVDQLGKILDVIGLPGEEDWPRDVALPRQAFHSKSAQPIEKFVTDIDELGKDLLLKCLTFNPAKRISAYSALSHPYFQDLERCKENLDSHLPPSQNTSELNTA

IC50 (CDK6/cyclin D3): 7940 nM | AUC(0-inf) [6]: 407 ng·h/mL | GI50 (HT-29): 190 nM | IC50 (CDK4/Cyclin D3): 1820 nM | AUC(0-t) at 24 h [7]: 897 ng·h/mL | inhibition at 10 µM (CYP3A4): 5.2% | Activity [8]: Active | half-life at 100 µM [11]: 3.9 min | CLint scaled at 100 µM [12]: 317 mL/min/kg | half-life [13]: 17.6 min | Tmax [15]: 30 min | clearance [23]: 81.8 mL/min/kg | IC50 (CDK2/Cyclin A2): 1180 nM | Cmax [26]: 302 ng/mL | MRT inf [27]: 87 min
SMILES: CC(C)Oc1cc(F)ccc1-c1ccnc(NC(=O)Nc2cccc(C(=O)N3CCN(C)CC3)c2)c1
Activity (PANC-1): Active | Activity (HCT-116 [1]): Dose-dependent-effect | inhibition (HCT-116 [2]): Active | Activity (HCT-116 [3]): Active | Activity (HCT-116 [4]): Active | Activity (HCT-116 [5]): Active | Activity [9]: Non-toxic | Activity [10]: Non-toxic | Activity (A549): Active | Activity (NCM460): Toxic | Activity (HCT-116 [14]): Dose-dependent-effect | Activity (HCT-116 [16]): Dose-dependent-effect | Activity (HCT-116 [17]): Active | Activity [18]: Non-toxic | Activity (HCT-116 [19]): Dose-dependent-effect | Activity [20]: Non-toxic | Activity [21]: Non-toxic | Activity [22]: Non-toxic | Activity [24]: Non-toxic | Activity (HCT-116 [25]): Active
